Values of other authors in patent US20050031690A1, “Stabilized prostaglandin formulation” (Pharmacia Corporation, priority 2003, published 2005).

Conditions: solution state

CCCCC[C@H](O)/C=C/[C@H]1[C@H](O)CC(=O)[C@@H]1CCCCCCC(=O)O [prostaglandin E1]
pH region of relative stability: 3-4
